Assay results as given in PubChem BioAssay (NCI).
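Cells were grown in 96-well plates and exposed to each compound for 48 hours at five concentrations; endpoints were interpolated linearly between bracketing concentrations, or set to the highest concentration if not reached. GI50 = concentration required for 50% inhibition of growth. At the TGI there is no net growth.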

Tests used:
Assay in all cases: NCI anticancer screen, dose series, 48 h
[1] = system: A498 renal
[2] = system: LOX IMVI melanoma
[3] = system: OVCAR-4 ovarian
[4] = system: OVCAR-3 ovarian
[5] = system: UO-31 renal
[6] = system: OVCAR-5 ovarian
[7] = system: OVCAR-8 ovarian
[8] = system: SN12C renal
[9] = system: EKVX NSCLC
[10] = system: BT-549 breast

Structure (SMILES) | TGI [1] | TGI [2] | TGI [3] | TGI [4] | TGI [5] | TGI [6] | TGI [7] | TGI [8] | TGI [9] | GI50 [2] | GI50 [10] | TGI [10] | GI50 [3] | GI50 [4] | GI50 [5] | GI50 [6] | GI50 [8] | GI50 [9] | GI50 [7] | GI50 [1]
OC1C2C=CCC1CCC2 (stereo unspecified) | > 100 µM | > 100 µM | > 100 µM | > 100 µM | > 100 µM | > 100 µM | > 100 µM | > 100 µM | > 100 µM | – | – | – | – | – | – | – | – | – | – | –
Cc1cc2c(cc1C)[n+]([O-])c(-c1c(Cl)cccc1Cl)c(N)[n+]2[O-] | 79.9 µM | > 100 µM | > 100 µM | 99.5 µM | 88.8 µM | > 100 µM | > 100 µM | > 100 µM | > 100 µM | – | – | – | – | – | – | – | – | – | – | –
CC(C)NC(=O)O/N=C1\CCC2[C@@H]3CC=C4C[C@@H](OC(=O)NC(C)C)CC[C@]4(C)C3CC[C@]12C (stereo partly specified) | > 30.3 µM | 2.27 µM | 3.5 µM | 3.6 µM | 2.3 µM | 4.26 µM | 3.75 µM | 3.14 µM | 3.42 µM | – | – | – | – | – | – | – | – | – | – | –
CCOC(=O)C1(Cc2ccc3ccccc3c2)CCCCCN1 (stereo unspecified) | – | 39.6 µM | > 100 µM | > 100 µM | 82.1 µM | – | > 100 µM | > 100 µM | > 100 µM | – | – | – | – | – | – | – | – | – | – | –
Oc1[nH]c2ccc(Cl)cc2c1/C=c1/ccc2c(c1)N=C(c1cc(F)cc(F)c1)N=2 | – | > 100 µM | > 100 µM | 5.73 µM | > 100 µM | > 100 µM | – | > 100 µM | > 100 µM | 3.52 µM | 2.09 µM | 7.59 µM | 2.77 µM | 2.26 µM | 87.3 µM | > 100 µM | 5.41 µM | 27.7 µM | – | –
CCc1ccccc1-n1c(N)c(C#N)c(-c2ccc(OC)c(OC)c2)c(C#N)c1=O | – | 92.2 µM | 63 µM | 33.1 µM | > 100 µM | 55.3 µM | 37.6 µM | 45.1 µM | > 100 µM | 23.6 µM | 19.4 µM | 49.5 µM | 23.1 µM | 17.3 µM | 25.5 µM | 20.5 µM | 19 µM | 41.1 µM | 18.5 µM | –
CC1(C)CC2CC(C)(CN2c2ncnc3ccc(Br)cc23)C1 (stereo unspecified) | – | 26.5 µM | 27.1 µM | 13.1 µM | 56.1 µM | 27.1 µM | 25 µM | 21.9 µM | – | 13.7 µM | – | – | 14.1 µM | 2.72 µM | 14 µM | 14.1 µM | 10.3 µM | – | 12.3 µM | –
CCOc1ccc(NC(=O)CCC(=O)NN)cc1 | – | > 100 µM | > 100 µM | > 100 µM | > 100 µM | > 100 µM | > 100 µM | > 100 µM | > 100 µM | – | – | – | – | – | – | – | – | – | – | –
N#Cc1c(Oc2ccc(F)c(NC(=O)Cc3cccc(C(F)(F)F)c3)c2)ccc2nc(NC(=O)C3CC3)sc12 | 2.56 µM | – | > 100 µM | > 100 µM | > 24.2 µM | > 100 µM | > 100 µM | > 100 µM | – | – | 2.71 µM | > 100 µM | 2.6 µM | 2.3 µM | 0.553 µM | 0.412 µM | 1.26 µM | – | 0.731 µM | 0.224 µM
